Measurements published in patent US20240158348A1, “HERBICIDAL CYCLIC AMIDES N-SUBSTITUTED WITH A HALOALKYLSULFONYLANILIDE GROUP” (FMC Corporation, priority 2021, published 2024).

Legend:
Type in all cases: in vivo
[1] = test system: ryegrass, Italian (Italian ryegrass, Lolium multiflorum); assay: Test C postemergence, Italian ryegrass; conditions: visual injury, 0 to 100 scale (0 no effect, 100 complete control)
Method in brief: (§1)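 Visual injury rating, 0 (no effect) to 100 (complete control), versus untreated controls after 10 or 12 days in the greenhouse. Compounds were formulated in non-phytotoxic solvent plus surfactant and applied either as a directed soil spray at sowing or onto emerged one- to two-leaf plants.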

[2] = test system: foxtail, giant (giant foxtail, Setaria faberi); assay: Test C preemergence, giant foxtail; conditions: 0 is no effect, 100 is complete control
Method in brief: as §1

[3] = test system: ragweed (common ragweed, Ambrosia artemisiifolia); assay: Test C preemergence, ragweed; conditions: 0 is no effect, 100 is complete control
Method in brief: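 Plants grown in a sand and loam soil blend received the formulated test chemicals either as a preemergence soil-directed spray or postemergence at 2 to 10 cm height. After 10 or 12 greenhouse days, injury was assessed visually, with 100 meaning complete control.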

[4] = test system: blackgrass (Alopecurus myosuroides); assay: Test C preemergence, blackgrass; conditions: 0 is no effect, 100 is complete control
Method in brief: as §1

[5] = test system: soybean (Glycine max); assay: Test C preemergence, soybean; conditions: 0 is no effect, 100 is complete control
Method in brief: as §1

[6] = test system: soybean (Glycine max); assay: Test C postemergence, soybean; conditions: visual injury, 0 to 100 scale (0 no effect, 100 complete control)
[7] = test system: corn (Zea mays); assay: Test C postemergence, corn; conditions: visual injury, 0 to 100 scale (0 no effect, 100 complete control)
[8] = test system: wheat (Triticum aestivum); assay: Test C preemergence, wheat; conditions: 0 is no effect, 100 is complete control

SMILES	Ryegrass, Italian plant response rating ([1]; 31 g ai/ha Postemergence)	Ryegrass, Italian plant response rating ([1]; 125 g ai/ha Postemergence)	Plant response rating (0 to 100 scale), Foxtail, Giant ([2]; 31 g ai/ha Preemergence)	Plant response rating (0 to 100 scale), Foxtail, Giant ([2]; 125 g ai/ha Preemergence)	Plant response rating (0 to 100 scale), Ragweed ([3]; 31 g ai/ha Preemergence)	Plant response rating (0 to 100 scale), Ragweed ([3]; 125 g ai/ha Preemergence)	Plant response rating (0 to 100 scale), Blackgrass ([4]; 31 g ai/ha Preemergence)	Plant response rating (0 to 100 scale), Blackgrass ([4]; 125 g ai/ha Preemergence)	Plant response rating (0 to 100 scale), Soybean ([5]; 31 g ai/ha Preemergence)	Plant response rating (0 to 100 scale), Soybean ([5]; 125 g ai/ha Preemergence)	Soybean plant response rating ([6]; 31 g ai/ha Postemergence)	Soybean plant response rating ([6]; 125 g ai/ha Postemergence)	Corn plant response rating ([7]; 31 g ai/ha Postemergence)	Corn plant response rating ([7]; 125 g ai/ha Postemergence)	Plant response rating (0 to 100 scale), Wheat ([8]; 31 g ai/ha Preemergence)	Plant response rating (0 to 100 scale), Wheat ([8]; 125 g ai/ha Preemergence)
Cc1c(NS(=O)(=O)C(F)(F)F)cc(N2CCC(OCC3CC3)C2=O)c(C)c1F (centres unmarked) [Compound 63]	0	10	100	100	90	100	70	90	60	100	50	100	0	50	80	100
Cc1c(NS(=O)(=O)C(F)(F)F)cc(N2CCC(OCC3CCC3)C2=O)c(C)c1F (centres unmarked) [Compound 64]	0	20	100	100	90	100	20	70	40	90	60	90	0	10	20	70
